Reference: paper PMC12751025, “α‑Aminoboronic Acid Moieties in Boro Dipeptides Modulate Proteasome Subunit Selectivity and Provide Access to Compounds with Potent Anticancer and Anti-Inflammatory Activity” (Journal of Medicinal Chemistry, 2025)
Converted amounts (≈) assume the structure as drawn.

Assays:
[1] = Human plasma protein binding, equilibrium dialysis; format: in vitro ADME; settings: for % of bound compound: human plasma, 1 μM, dialysis 5 h; for recovery at 5 h, 1 µM: human, pH 7.4; for recovery at 5 h, 1 µM / Stability [%]: plasma protein binding assay
Protocol: Human plasma protein binding
The assay was performed in a multiple-use 96-well dialysis unit (HTD96b dialyzer). Each individual well unit consisted of two chambers separated by a vertically aligned dialysis membrane of predetermined pore size (MWCO 14 kDa). 125 µL of non-diluted plasma spiked with the compound (1 μM, final DMSO and acetonitrile concentration was 0.005% and 1%, respectively) was added to one chamber and the same volume of PBS buffer pH 7.4 to the other chamber. HTD96b dialyzer was incubated with shaking (250 rpm) at 37 °C, 5% CO2, and a saturating humidity (~95%) for 5 h. For samples preparation, an aliquot of the content of each chamber had been mixed with the same volume of the blank opposite matrix. In order to define non-specific loss of the compound during this assay, standard solution was created by mixing an aliquot of spiked plasma with blank buffer without dialysis. Two aliquots of the standard solution were incubated with shaking (250 rpm) at 37 °C, 5% CO2, and a saturating humidity (~95%) for 5 h (recovery samples). The other two aliquots were immediately diluted with acetonitrile and stored at 4 °C until LC-MS/MS analysis (stability samples). All samples were diluted 5-fold with 90% acetonitrile with internal standard with subsequent plasma proteins sedimentation by centrifuging at 6000 rpm for 5 min. Supernatants were analyzed using HPLC system coupled with tandem mass spectrometer. […]

β2c subunit of human cCP = biological target: T1, β2c subunit of human cCP (Homo sapiens, UniProt P49720+Q99436); assay: IC50 determination with fluorogenic substrate Ac-RLR-AMC (PA28β added); format: biochemical; settings: human cCP; mean of at least three experiments; NA: not active at 50 μM
T1 construct: purchased Boston Biochem, Inc
Protocol: Stock solutions of the compounds were prepared in DMSO. To the 35 μL of solution of the compound in the buffer, 35 μL of 0.4 nM human iCP (South Bay Bio, San Jose, CA, USA) or human cCP (Boston Biochem, Inc., Cambridge, MA, USA) was added. For assays evaluating the activity of β2c and β2i, the buffer was modified by adding the proteasomal activator PA28β (Boston Biochem, Inc., Cambridge, MA, USA) at a final concentration of 6 nM. […] The substrates used were acetyl-Nle-Pro-Nle-Asp-7-amino-4-methylcoumarin (Ac-nLPnLD-AMC, Bachem, Bubendorf, Switzerland) for β1c, acetyl-Pro-Ala-Leu-7-amino-4-methylcoumarin (Ac-PAL-AMC, Boston Biochem, Inc., Cambridge, MA, USA) for β1i, acetyl-Arg-Leu-Arg-7-amino-4-methylcoumarin (Ac-RLR-AMC, Bachem, Bubendorf, Switzerland) for β2c and β2i, acetyl-Trp-Leu-Ala-7-amino-4-methylcoumarin (Ac-WLA-AMC, Bachem, Bubendorf, Switzerland) for β5c, and acetyl-Ala-Asn-Trp-7-amino-4-methylcoumarin (Ac-ANW-AMC, Bachem, Bubendorf, Switzerland) for β5i. Progress of the reaction was measured using a BioTek Synergy HT microplate reader, monitoring fluorescence at 460 nm (excitation at 360 nm) for 60 min at 37 °C. The initial linear ranges were used to calculate the reaction velocity and determine the residual activity.
(§1) The final assay mixtures contained 0.4 nM human iCP or cCP in assay buffer (50 mM Tris-HCl, 0.5 mM EDTA, pH 7.4, addition of PA28β for β2c and β2i subunits). […] After incubation at 37 °C for 30 min, the reaction was initiated by the addition of the substrate Ac-nLPnLD-AMC for β1c, Ac-PAL-AMC for β1i, Ac-RLR-AMC for β2c and β2i, Ac-WLA-AMC for β5c, and Ac-ANW-AMC for β5i. Fluorescence was monitored at 460 nm (excitation at 360 nm) for 60 min at 37 °C. The reaction progress was recorded and the initial linear phases were used to determine the velocity. The IC50 values were calculated using GraphPad Prism software (GraphPad Software, San Diego, CA, USA), and the results represent the mean values of at least three independent determinations.

LPS-stimulated PBMCs = assay: Cytokine secretion, Cytometric Bead Array; format: cell-based, human; settings: for dose-dependent effects on cytokine release from LPS-stimulated PBMCs: dose–response curves (Figure S12)
Protocol: PBMCs (1.5 × 10^6/mL) were plated in culture media in 96-well round-bottom plates. After a 60 min treatment with compounds at 37 °C and 5% CO2, cells were stimulated with LPS (Escherichia coli, O111:B4, 1 μg/mL, Sigma) for 24 h. Supernatants were then collected and analyzed for cytokine release by Human Inflammatory Cytokine Cytometric Bead Array (BD Biosciences, New Jersey, USA).

β1i subunit of human iCP = β1i subunit of human iCP (Homo sapiens, UniProt P28065+P40306); assay: IC50 determination with subunit-specific fluorogenic substrate Ac-PAL-AMC; settings: IC50 β1i, human iCP; mean of at least three experiments; NA: not active at 50 μM
Protocol: (§2) The measurements of the residual activity of control compounds were carried out at final compound concentrations of 1 μM in the assay buffer (50 mM Tris-HCl, 0.5 mM ethylenediaminetetraacetic acid (EDTA), pH 7.4). Stock solutions of the compounds were prepared in DMSO. To the 35 μL of solution of the compound in the buffer, 35 μL of 0.4 nM human iCP (South Bay Bio, San Jose, CA, USA) or human cCP (Boston Biochem, Inc., Cambridge, MA, USA) was added. For assays evaluating the activity of β2c and β2i, the buffer was modified by adding the proteasomal activator PA28β (Boston Biochem, Inc., Cambridge, MA, USA) at a final concentration of 6 nM. […] The substrates used were acetyl-Nle-Pro-Nle-Asp-7-amino-4-methylcoumarin (Ac-nLPnLD-AMC, Bachem, Bubendorf, Switzerland) for β1c, acetyl-Pro-Ala-Leu-7-amino-4-methylcoumarin (Ac-PAL-AMC, Boston Biochem, Inc., Cambridge, MA, USA) for β1i, acetyl-Arg-Leu-Arg-7-amino-4-methylcoumarin (Ac-RLR-AMC, Bachem, Bubendorf, Switzerland) for β2c and β2i, acetyl-Trp-Leu-Ala-7-amino-4-methylcoumarin (Ac-WLA-AMC, Bachem, Bubendorf, Switzerland) for β5c, and acetyl-Ala-Asn-Trp-7-amino-4-methylcoumarin (Ac-ANW-AMC, Bachem, Bubendorf, Switzerland) for β5i. Progress of the reaction was measured using a BioTek Synergy HT microplate reader, monitoring fluorescence at 460 nm (excitation at 360 nm) for 60 min at 37 °C. The initial linear ranges were used to calculate the reaction velocity and determine the residual activity.
as §1

Kinetic solubility = format: physicochemical; settings: 25 °C; for solubility at 2 h / solubility kinetic at 2 h: phosphate-buffered saline, pH 7.4, aqueous buffer, kinetic from dmso stock; for solubility at 2 h: read-out: PBS solubility, pH 7.4; for solubility kinetic at 2 h: CSV column, unit inferred
Protocol: Briefly, using a 20 mM (10 mM for 5l) stock solution of the compound in 100% DMSO, dilutions were prepared to a theoretical concentration of 400 μM (200 μM for 5l) in duplicates in phosphate-buffered saline pH 7.4 (138 mM NaCl, 2.7 mM KCl, 10 mM K-phosphate) with 2% final DMSO. The experimental compound dilutions in PBS were further allowed to equilibrate at 25 °C on a thermostatic shaker for two hours and then filtered through HTS filter plates using a vacuum manifold. The filtrates of test compounds were diluted 2-fold with acetonitrile with 2% DMSO before measuring.
In parallel, using a 20 mM (10 mM for 5l) stock solution of the compound in 100% DMSO dilutions were prepared to theoretical concentrations of 0 μM (blank), […] (0 μM (blank), 10 μM, 25 50 μM, and 100 μM,μM for 5l) in 50% acetonitrile/PBS with 2% final DMSO to generate calibration curves. Ondansetron was used as a reference compound to control proper assay performance. 200 μL of each sample was transferred to a 96-well plate and measured in the 230-550 nm range with a 5 nm step. […]

β5i subunit of human iCP = β5i subunit of human iCP (Homo sapiens, UniProt P20618+P28062); assay: IC50 determination with fluorogenic substrate Ac-ANW-AMC; settings: IC50 β5i, human iCP; mean of at least three experiments; NA: not active at 50 μM
Protocol: as §2, §1

β2i subunit of human iCP = β2i subunit of human iCP (Homo sapiens, UniProt P40306+P49720); assay: IC50 determination with fluorogenic substrate Ac-RLR-AMC (PA28β added)
Protocol: as §2, §1

β5c subunit of human cCP = biological target: T2, β5c subunit of human cCP (Homo sapiens, UniProt P20618+P28074); assay: IC50 determination with fluorogenic substrate Ac-WLA-AMC; format: biochemical; settings: human cCP; mean of at least three experiments; NA: not active at 50 μM
T2 construct: purchased Boston Biochem, Inc
Protocol: as §2, §1

β1c subunit of human cCP = biological target: T3, β1c subunit of human cCP (Homo sapiens, UniProt P28072+Q99436); assay: IC50 determination with subunit-specific fluorogenic substrate Ac-nLPnLD-AMC; format: biochemical; settings: human cCP; mean of at least three experiments; NA: not active at 50 μM
T3 construct: purchased Boston Biochem, Inc
Protocol: as §2, §1

PBMCs = assay: Cytotoxicity MTS assay; format: cell-based, human; settings: 10, 50 and 250 nM, 24 h, MTS (Figure S1)
Protocol: Buffy coats from venous blood of anonymized healthy donors were purchased from Blood Transfusion Centre of Slovenia. PBMCs were isolated by density gradient centrifugation with Ficoll-Paque (Pharmacia, Sweden). The isolated cells were resuspended in RPMI 1640 medium (Sigma-Aldrich, St. Louis/MO, United States) supplemented with 10% heat-inactivated FBS (Gibco, ThermoFisher Scientific, Waltham/MA, United States), 2 mM L-glutamine (Sigma-Aldrich, St. Louis/MO, United States), 100 U/mL penicillin (Sigma-Aldrich, St. Louis/MO, United States), and 100 μg/mL streptomycin (Sigma-Aldrich, St. Louis/MO, United States).
Cytotoxicity was determined using the MTS cell proliferation assay (CellTiter 96 AQueous One Solution Cell Proliferation Assay, Promega, Wisconsin, USA), which measures mitochondrial metabolic activity as a surrogate for cell viability. The assay was performed according to the manufacturer protocol. The cytotoxicity was performed on HepG2, MCF-7, MDA-MB-231, MOLT-4, MM.1S, THP-1, RAJI cell lines and on HUVECs as well as PBMCs. The cells were seeded in 96-well plates (15.000–30.000 cells/well). After 24 h incubation at 5% CO2 and 37 °C, the cells were treated either with DMSO (negative control) or solutions of the tested compounds in DMSO. […] Cells were incubated for additional 2 h - 4 h, followed by the measurement of absorbance at 490 nm on the Tecan Spark microplate reader.

[2] = system: human umbilical vein endothelial cells; assay: Cytotoxicity MTS assay; format: cell-based; settings: 10, 50 and 250 nM, 72 h, MTS (Figure S2)
Protocol: Cytotoxicity was determined using the MTS cell proliferation assay (CellTiter 96 AQueous One Solution Cell Proliferation Assay, Promega, Wisconsin, USA), which measures mitochondrial metabolic activity as a surrogate for cell viability. The assay was performed according to the manufacturer protocol. The cytotoxicity was performed on HepG2, MCF-7, MDA-MB-231, MOLT-4, MM.1S, THP-1, RAJI cell lines and on HUVECs as well as PBMCs. The cells were seeded in 96-well plates (15.000–30.000 cells/well). After 24 h incubation at 5% CO2 and 37 °C, the cells were treated either with DMSO (negative control) or solutions of the tested compounds in DMSO. After 24 or 72 h, MTS reagent was added. Cells were incubated for additional 2 h - 4 h, followed by the measurement of absorbance at 490 nm on the Tecan Spark microplate reader.

[3] = kinetic solubility, 2% DMSO, two hours, theoretical concentration 400 μM (200 μM for 5l)

| Structure (SMILES) | % of bound compound [1] | recovery at 5 h, 1 µM [1] | Stability [%] [1] | IC50 (β2c subunit of human cCP) | Effect on secretion of cytokines in LPS-stimulated PBMCs (LPS-stimulated PBMCs; 250 nM, 1 h pretreatment, LPS 1 μg/mL, 24 h, IL-1, IL-6, IL-8, IL-10, TNF-α) | dose-dependent effects on cytokine release from LPS-stimulated PBMCs (LPS-stimulated PBMCs) | IC50 (β1i subunit of human iCP) | solubility at 2 h (Kinetic solubility; [3]) | solubility kinetic at 2 h (Kinetic solubility) | IC50 (β5i subunit of human iCP) | IC50 (β2i subunit of human iCP) | IC50 (β5c subunit of human cCP) | IC50 (β1c subunit of human cCP) | cytotoxic effect on PBMCs (PBMCs) | PBS solubility, pH 7.4 (Kinetic solubility; [3]) | cytotoxic effect on human umbilical vein endothelial cells [2] |
| --- | --- | --- | --- | --- | --- | --- | --- | --- | --- | --- | --- | --- | --- | --- | --- | --- |
| O=C(N[C@@H](Cc1ccccc1)C(=O)N[C@H](B(O)O)C1CCCC1)c1cnccn1 [5l, ((R)-Cyclopentyl((S)-3-phenyl-2-(pyrazine-2-carboxamido)propanamido)methyl)boronic Acid] | 91% | 93% | 86% | 37400 nM | strongest effects | very comparable effects | 3 nM | ≥ 200 µM | > 200 µM | 58 nM | 1000 nM | 44 nM | 18 nM | – | – | – |
| CC(C)C[C@H](NC(=O)[C@H](Cc1ccccc1)NC(=O)c1cnccn1)B(O)O [bortezomib, reference compound] | 93% | 100% | 92% | – | – | very comparable effects | – | 399 µM (≈ 153 µg/mL) | 399 µM (≈ 153 µg/mL) | – | – | – | – | more cytotoxic | > 200 μM | more cytotoxic |
